Data from ChEMBL document CHEMBL1129375, “Design and synthesis of a series of non-peptide high-affinity human corticotropin-releasing factor1 receptor antagonists” (J Med Chem, 1996).

Key:
[1] = molecular target: T1, Corticotropin-releasing factor receptor 1 (Homo sapiens, UniProt P34998); assay: Inhibition of [125I]CRF binding to human Corticotropin releasing factor receptor 1 tested at 6-12 doses
T1 sequence (P34998 whole entry): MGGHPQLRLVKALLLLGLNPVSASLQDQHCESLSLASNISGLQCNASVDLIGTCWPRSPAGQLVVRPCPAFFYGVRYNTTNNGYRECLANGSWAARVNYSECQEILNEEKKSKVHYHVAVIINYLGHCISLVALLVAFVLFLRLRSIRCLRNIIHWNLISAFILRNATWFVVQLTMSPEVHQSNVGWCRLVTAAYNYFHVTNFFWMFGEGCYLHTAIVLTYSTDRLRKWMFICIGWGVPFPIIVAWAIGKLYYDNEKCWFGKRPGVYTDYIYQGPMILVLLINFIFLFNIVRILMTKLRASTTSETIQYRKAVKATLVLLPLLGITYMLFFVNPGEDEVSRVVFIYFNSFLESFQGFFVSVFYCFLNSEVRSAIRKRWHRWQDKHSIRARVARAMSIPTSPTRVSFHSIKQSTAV

Homo sapiens = organism: Homo sapiens; assay: Compound was evaluated for the inhibition of CRF-stimulated cyclic adenosine monophosphate production; type: functional, organism-based

Row | Ki [1] [nM] | IC50 (Homo sapiens) [nM] | Structure (SMILES)
1 | 2 | – | CCCN(CC1CC1)c1nc(C)nc(Nc2c(Cl)cc(Cl)cc2Cl)c1Br
2 | 3.8 | – | CCCN(CC1CC1)c1nc(C)nc(Nc2c(Cl)cc(Cl)cc2Cl)c1CC
3 | > 10000 | – | CCCN(CC1CC1)c1cc(Nc2c(Cl)cc(Cl)cc2Cl)ncn1
4 | 30 | 3700 | CCCN(CC1CC1)c1cc(Nc2c(Cl)cc(Cl)cc2Cl)nc(C)n1
5 | 2.5 | 250 | CCCN(CCC)c1nc(C)nc(Nc2c(Cl)cc(Cl)cc2Cl)c1C
6 | 1.7 | 100 | CCCN(CC1CC1)c1nc(C)nc(Nc2c(Cl)cc(Cl)cc2Cl)c1Cl
7 | 2.3 | – | CCCN(CC1CC1)c1nc(C)nc(Nc2c(Cl)cc(Cl)cc2Cl)c1C
8 | > 10000 | – | CCCN(CC1CC1)c1nc(C)cc(Nc2c(Cl)cc(Cl)cc2Cl)n1
9 | 70 | – | CCCN(CC1CC1)c1cc(C)nc(Nc2c(Cl)cc(Cl)cc2Cl)n1
10 | 150 | – | CCCN(CC1CC1)c1nc(C)nc(N(C)c2c(Cl)cc(Cl)cc2Cl)c1C
